From patent US4500467A, “Benzoylthio compounds, their preparation and their use as drugs” (BASF Aktiengesellscaft, priority 1982, dated 1985)

Biological target: T1, angiotensin converting enzyme (Rattus norvegicus, UniProt P47820)
T1 construct: from tissue; host or cells: rat blood plasma (ex vivo, after oral dosing)
T1 sequence (P47820 36-1238 limits assumed): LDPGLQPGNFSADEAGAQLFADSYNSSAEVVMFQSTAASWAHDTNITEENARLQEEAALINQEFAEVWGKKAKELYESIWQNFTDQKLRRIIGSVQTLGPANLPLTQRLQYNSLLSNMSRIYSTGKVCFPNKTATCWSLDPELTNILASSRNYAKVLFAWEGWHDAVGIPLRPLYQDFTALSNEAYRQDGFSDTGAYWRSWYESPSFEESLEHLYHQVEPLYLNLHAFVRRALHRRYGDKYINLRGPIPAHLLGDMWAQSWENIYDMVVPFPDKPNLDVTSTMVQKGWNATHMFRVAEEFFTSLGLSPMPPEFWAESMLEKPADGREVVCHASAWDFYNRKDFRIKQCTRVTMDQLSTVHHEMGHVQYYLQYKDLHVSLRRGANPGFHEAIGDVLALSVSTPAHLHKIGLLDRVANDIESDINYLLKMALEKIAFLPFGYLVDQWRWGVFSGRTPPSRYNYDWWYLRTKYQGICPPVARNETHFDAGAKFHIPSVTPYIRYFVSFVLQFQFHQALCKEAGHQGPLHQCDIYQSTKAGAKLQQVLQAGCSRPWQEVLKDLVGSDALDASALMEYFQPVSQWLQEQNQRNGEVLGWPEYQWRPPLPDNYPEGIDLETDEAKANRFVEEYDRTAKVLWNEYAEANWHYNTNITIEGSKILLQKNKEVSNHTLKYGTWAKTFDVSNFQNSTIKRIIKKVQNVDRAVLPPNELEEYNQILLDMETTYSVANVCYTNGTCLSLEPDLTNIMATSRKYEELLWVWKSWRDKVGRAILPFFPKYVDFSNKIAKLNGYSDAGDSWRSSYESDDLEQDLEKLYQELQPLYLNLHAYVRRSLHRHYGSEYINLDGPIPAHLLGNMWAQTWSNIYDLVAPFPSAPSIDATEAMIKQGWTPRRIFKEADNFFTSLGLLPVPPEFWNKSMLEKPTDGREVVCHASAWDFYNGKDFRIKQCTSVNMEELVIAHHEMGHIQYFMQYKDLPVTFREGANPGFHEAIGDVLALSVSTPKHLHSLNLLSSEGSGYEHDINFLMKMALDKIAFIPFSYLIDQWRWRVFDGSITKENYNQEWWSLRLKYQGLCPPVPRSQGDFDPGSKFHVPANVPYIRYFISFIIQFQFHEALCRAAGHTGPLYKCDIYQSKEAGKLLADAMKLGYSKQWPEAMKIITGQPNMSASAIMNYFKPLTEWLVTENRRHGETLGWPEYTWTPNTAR
Experiment: inhibition of angiotensin converting enzyme ex vivo in rats (plasma before and 2 hours after oral administration, 14C-hippuryl-histidylleucine substrate)
Settings: for angiotensin converting enzyme is inhibited in doses smaller than the captopril dose: compared with captopril dose; for ED50: rat, plasma 2 hours after administration, read-out: ED 50% (dose which produces 50% inhibition of angiotensin converting enzyme); for relative activity: relative to captopril = 1.00, from ED 50%
Description: The following method was used in investigating the pharmacodynamic effect (inhibition of angiotensin converting enzyme ex vivo in rats):
Before, and 2 hours after, oral administration of the substance, blood was withdrawn from the animals, and the plasma was diluted 1:6 with H2 O. The diluted plasma (100 μl) was incubated with 50 μl of ^14 C-hippuryl-histidylleucine solution (K phosphate 260 mM, NaCl 938 mM, pH=8.3) for 1 hour at 37° C. The reaction was terminated by adding 2 ml of 0.1N HCl, and the product, ^14 C-hippuric acid, was extracted with toluene scintillator (PPO+POPOP+toluene+21% of isoamyl alcohol) and determined using a scintillation counter for liquids. After subtraction of the blank value (incubation time=0 minute), the percentage inhibition was determined from the enzymatic activities in the plasma before and after administration of the substance. The ED 50%, ie. the dose which produces 50% inhibition, is calculated from the individual inhibitory values by linear regression following logit-log transformation.

| angiotensin converting enzyme is inhibited in doses smaller than the captopril dose [times smaller] | ED50 [mg/kg] | relative activity | Structure (SMILES) |
| --- | --- | --- | --- |
| 5 | 0.2 | 5.0 | O=C(SC[C@H](SC(=O)c1ccccc1)C(=O)N[C@@H](Cc1c[nH]c2ccccc12)C(=O)O)c1ccccc1 [Example 68, N-[(R)-2,3-Bis-(benzoylthio)-propionyl]-tryptophan] |
| 5 | 0.2 | 5.0 | C[C@H](NC(=O)[C@H](CSC(=O)c1ccccc1)SC(=O)c1ccccc1)C(=O)N1CCC[C@H]1C(=O)O [Example 70, N-[(R)-2,3-Bis-(benzoylthio)-propionyl]-alanylproline] |
